# Biological target: T1, RIPK2 enzyme (Homo sapiens, UniProt O43353)
# T1 construct: purchased Carna 09-128
# Test: RIPK2 inhibition (ADP-Glo Kinase Assay)
# Format: biochemical
# Details: RIPK2 5 nM, ATP 150 μM, MBP substrate, read-out: RIPK2 IC50
# Method in brief: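 Swine MBP substrate; compound and 5 nM RIPK2 first mixed for 30 min at room temperature; buffer pH 7.5 HEPES 50 mM with 10 mM MgCl2, 2 mM DTT, 1 mM EGTA, Brij-35, BSA.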
# T1 sequence (O43353 1-299 limits assumed): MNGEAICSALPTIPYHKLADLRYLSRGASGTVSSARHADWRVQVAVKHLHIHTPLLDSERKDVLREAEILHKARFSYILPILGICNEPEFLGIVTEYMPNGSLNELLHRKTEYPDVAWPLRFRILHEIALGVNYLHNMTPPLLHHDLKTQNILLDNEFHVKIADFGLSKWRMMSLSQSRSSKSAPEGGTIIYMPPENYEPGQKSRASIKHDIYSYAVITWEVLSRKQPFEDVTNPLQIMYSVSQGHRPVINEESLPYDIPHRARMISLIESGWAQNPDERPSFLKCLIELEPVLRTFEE
row,SMILES,IC50
1,"Cc1cc(CC(=O)Nc2cnn(C(C)(C)C)c2)c(F)cc1Oc1ccnc2ccc(O[C@H]3C[C@H]4CC[C@@H](C3)N4)cc12 [Compound 410, 2-(4-((6-(((1R,3r,5S)-8-azabicyclo[3. 2.1]octan-3-yl)oxy)quinolin-4-yl)oxy)-2-fluoro-5-methyl-pheny1)-N-(1-(tert-butyl)-1H-pyrazol-4-yl)acetamide]",< 2.5 nM
2,"CC(C)(C)n1cc(NC(=O)Cc2ccc(Oc3ccnc4ccc(P(C)(C)=O)cc34)cc2F)cn1 [Compound 36, N-(1-(tert-butyl)-1H-pyrazol-4-yl)-2-(4-((6-(dimethylphosphoryl)quinolin-4-yl)oxy)-2-fluorophenyl)acetamide]",4.7 nM
3,"Cc1cc(CC(=O)Nc2cnn(C(C)(C)C)c2)c(F)cc1Oc1ccnc2ccc(OC3CCNCC3)cc12 [Compound 114, N-(1-(tert-butyl)-1H-pyrazol-4-yl)-2-(2-fluoro-5-methyl-4-((6-(piperidin-4-yloxy)quinolin-4-yl)oxy)phenyl) acetamide]",< 2.5 nM
4,"CC(C)(C)c1cc(NC(=O)Cc2ncc(Oc3ncnc4ccc(OC5CCNCC5)cc34)cc2F)n[nH]1 [Compound 58, N-(5-(tert-butyl)-1H-pyrazol-3-yl)-2-(3-fluoro-5-((6-(piperidin-4-yloxy)quinazolin-4-yl)oxy)pyridin-2-yl)acetamide]",3.7 nM
5,"CC(C)(C)n1cc(NC(=O)Cc2ccc(Oc3ccnc4ccc(S(C)(=N)=O)cc34)cc2F)cn1 (single isomer, unassigned) [Compound 69, N-(1-(tert-butyl)-1H-pyrazol-4-yl)-2-(2-fluoro-4-((6-(S-methylsulfonimidoyl)quinolin-4-yl)oxy)phenyl)acetamide]",6.9 nM
6,"CCN1CCC(Oc2ccc3ncnc(Oc4cnc(CC(=O)Nc5cnn(C(C)(C)C)c5)c(F)c4)c3c2)CC1 [Compound 56, N-(1-(tert-butyl)-1H-pyrazol-4-yl)-2-(5-((6-((1-ethylpiperidin-4-yl)oxy)quinazolin-4-yl)oxy)-3-fluoropyridin-2-yl)acetamide]",4.9 nM
7,"Cc1cc(CC(=O)Nc2cnn(C(C)(C)C)c2)ccc1Oc1ncnc2ccc(OC3CCNCC3)cc12 [Compound 85, N-(1-(tert-butyl)-1H-pyrazol-4-yl)-2-(3-methyl-4-((6-(piperidin-4-yloxy)quinazolin-4-yl)oxy)phenyl) acetamide]",5.1 nM
8,"CC(C)(C)n1cc(NC(=O)Cc2ccc(Oc3ccnc4ccc(S(C)(=O)=O)cc34)c(F)c2F)cn1 [Compound 167, N-(1-(tert-butyl)-1H-pyrazol-4-yl)-2-(2,3-difluoro-4-((6-(methylsulfonyl)quinolin-4-yl)oxy)phenyl)acetamide]",< 2.5 nM
9,"Cc1c(Oc2ccnc3ccc(S(N)(=O)=O)cc23)ccc(CC(=O)Nc2cnn(C(C)(C)C)c2)c1F [Compound 267, N-(1-(tert-butyl)-1H-pyrazol-4-yl)-2-(2-fluoro-3-methyl-4-((6-sulfamoylquinolin-4-yl)oxy)phenyl)acetamide]",< 2.5 nM
10,"Cc1c(Oc2ccnc3ccc(C(=O)N(CCO)CCO)cc23)ccc(CC(=O)Nc2cnn(C(C)(C)C)c2)c1F [Compound 341, 4-(4-(2-((1-(tert-butyl)-1H-pyrazol-4-yl)amino)-2-oxoethyl)-3-fluoro-2-methyl-phenoxy)-N,N-bis(2-hydroxyethyl) quinoline-6-carboxamide]",< 2.5 nM
11,"CC(C)(C)c1cc(NC(=O)Cc2ccc(Oc3ccnc4ccc(S(C)(=N)=O)cc34)cc2F)[nH]n1 (stereo not drawn) [Compound 65, N-(5-(tert-butyl)-1H-pyrazol-3-yl)-2-(2-fluoro-4-((6-(S-methylsulfonimidoyl)quinolin-4-yl)oxy)phenyl) acetamide]",< 2.5 nM
12,"Cc1cc(CC(=O)Nc2cnn(C(C)(C)C)c2)cc(F)c1Oc1ncnc2ccc(C(N)=O)cc12 [Compound 447, 4-(4-(2-((1-(tert-butyl)-1H-pyrazol-4-yl)amino)-2-oxoethyl)-2-fluoro-6-methylphenoxy)quinazoline-6-carboxamide]",< 2.5 nM
13,"CC(C)(C)n1cc(NC(=O)Cc2ccc(Oc3ccnc4ccc(S5(=O)=NCCC5)cc34)cc2F)cn1 (stereo not drawn) [Compound 66, N-(1-(tert-butyl)-1H-pyrazol-4-yl)-2-(2-fluoro-4-((6-(1-oxido-4,5-dihydro-3H-1λ^6-isothiazol-1-yl)quinolin-4-yl)oxy)phenyl) acetamide]",< 2.5 nM

# Continued, values first:
row,IC50,SMILES
1,< 2.5 nM,"Cc1cc(CC(=O)Nc2cnn(C(C)(C)C)c2)c(F)cc1Oc1ccnc2ccc(C(=O)N3CC(O)C3)cc12 [Compound 373, N-(1-(tert-butyl)-1H-pyrazol-4-yl)-2-(2-fluoro-4-((6-(3-hydroxy-azetidine-1-carbonyl)quinolin-4-yl)oxy)-5-methylphenyl) acetamide]"
2,4.5 nM,"CN1CCN(c2ccc3nccc(Oc4ccc(CC(=O)Nc5cnn(C(C)(C)C)c5)c(F)c4)c3c2)C(=O)C1 [Compound 156, N-(1-(tert-butyl)-1H-pyrazol-4-yl)-2-(2-fluoro-4-((6-(4-methyl-2-oxopiperazin-1-yl)quinolin-4-yl)oxy)phenyl) acetamide]"
3,< 2.5 nM,"Cc1c(Oc2ccnc3ccc(C(=O)N4CCC(N)C4)cc23)ccc(CC(=O)Nc2cnn(C(C)(C)C)c2)c1F (single isomer, unassigned) [Compound 353, 2-(4-((6-(3-amino-pyrrolidine-1-carbonyl)quinolin-4-yl)oxy)-2-fluoro-3-methyl-phenyl)-N-(1-(tert-butyl)-1H-pyrazol-4-yl)acetamide]"
4,< 2.5 nM,"Cc1cc(CC(=O)Nc2cnn(C(C)(C)C)c2)ccc1Oc1ccnc2ccc(C(=O)N3CCCC3)cc12 [Compound 210, N-(1-(tert-butyl)-1H-pyrazol-4-yl)-2-(3-methyl-4-((6-(pyrrolidine-1-carbonyl)quinolin-4-yl)oxy)phenyl) acetamide]"
5,< 2.5 nM,"CCOc1cc2nccc(Oc3ccc(CC(=O)Nc4cnn(C(C)(C)C)c4)cc3C)c2cc1S(C)(=O)=O [Compound 217, N-(1-(tert-butyl)-1H-pyrazol-4-yl)-2-(4-((7-ethoxy-6-(methylsulfonyl)quinolin-4-yl)oxy)-3-methylphenyl) acetamide]"
6,< 2.5 nM,"Cc1cc(CC(=O)Nc2cnn(C(C)(C)C)c2)ccc1Oc1ccnc2ccc(OC3CCCNC3=O)cc12 (stereo not drawn) [Compound 308, N-(1-(tert-butyl)-1H-pyrazol-4-yl)-2-(3-methyl-4-((6-((2-oxopiperidin-3-yl)oxy)quinolin-4-yl)oxy)phenyl) acetamide]"
7,< 2.5 nM,"Cc1cc(CC(=O)Nc2cnn(C3CCC3)c2)ccc1Oc1ccnc2ccc(S(C)(=O)=O)cc12 [Compound 213, N-(1-cyclobutyl-1H-pyrazol-4-yl)-2-(3-methyl-4-((6-(methylsulfonyl)quinolin-4-yl)oxy)phenyl)acetamide]"
8,< 2.5 nM,"Cc1cc(CC(=O)Nc2cnn(C(C)(C)C)c2)ccc1Oc1ccnc2ccc(OCC3CCCN3)cc12 (single isomer, unassigned) [Compound 191, N-(1-(tert-butyl)-1H-pyrazol-4-yl)-2-(3-methyl-4-((6-(pyrrolidin-2-ylmethoxy)quinolin-4-yl)oxy)phenyl) acetamide]"
9,< 2.5 nM,"CN1CCC(Oc2ccc3nccc(Oc4ccc(CC(=O)Nc5cnn(C(C)(C)C)c5)cc4F)c3c2)CC1 [Compound 162, N-(1-(tert-butyl)-1H-pyrazol-4-yl)-2-(3-fluoro-4-((6-((1-methyl-piperidin-4-yl)oxy)quinolin-4-yl)oxy)phenyl) acetamide]"
10,< 2.5 nM,"Cc1cc(CC(=O)Nc2cnn(C(C)(C)C)c2)ccc1Oc1ccnc2ccc(OC3CCNCC3F)cc12 (racemic) [Compound 237, N-(1-(tert-butyl)-1H-pyrazol-4-yl)-2-(4-((6-((-3-fluoro-piperidin-4-yl)oxy)quinolin-4-yl)oxy)-3-methylphenyl) acetamide]"
11,< 2.5 nM,"Cc1cc(CC(=O)Nc2cnn(C(C)(C)C)c2)c(F)cc1Oc1ccnc2ccc(C(=O)NC(C)C)cc12 [Compound 455, 4-(4-(2-((1-(tert-butyl)-1H-pyrazol-4-yl)amino)-2-oxoethyl)-5-fluoro-2-methylphenoxy)-N-isopropylquinoline-6-carboxamide]"
12,< 2.5 nM,"COCCNC(=O)c1ccc2nccc(Oc3cc(F)c(CC(=O)Nc4cnn(C(C)(C)C)c4)cc3C)c2c1 [Compound 367, 4-(4-(2-((1-(tert-butyl)-1H-pyrazol-4-yl)amino)-2-oxoethyl)-5-fluoro-2-methyl-phenoxy)-N-(2-methoxy-ethyl) quinoline-6-carboxamide]"
13,< 2.5 nM,"Cc1cc(CC(=O)Nc2cnn(C(C)(C)C)c2)ccc1Oc1ccnc2ccc(S(=O)(=O)C3CC(O)C3)cc12 (stereo not drawn) [Compound 281, N-(1-(tert-butyl)-1H-pyrazol-4-yl)-2-(4-((6-((-3-hydroxycyclobutyl)sulfonyl)quinolin-4-yl)oxy)-3-methylphenyl)acetamide]"
14,< 2.5 nM,"Cc1c(Oc2ccnc3ccc(C(=O)N4CCC(N)C4)cc23)ccc(CC(=O)Nc2cnn(C(C)(C)C)c2)c1F (single isomer, unassigned) [Compound 354, 2-(4-((6-(3-amino-pyrrolidine-1-carbonyl)quinolin-4-yl)oxy)-2-fluoro-3-methyl-phenyl)-N-(1-(tert-butyl)-1H-pyrazol-4-yl)acetamide]"
15,< 2.5 nM,"Cc1c(Oc2ccnc3ccc(C(=O)O)cc23)ccc(CC(=O)Nc2cnn(C(C)(C)C)c2)c1F [Compound 333, 4-(4-(2-((1-(tert-butyl)-1H-pyrazol-4-yl)amino)-2-oxoethyl)-3-fluoro-2-methyl-phenoxy) quinoline-6-carboxylic acid]"
16,< 2.5 nM,"Cc1cc(CC(=O)Nc2cnn(C(C)(C)C)c2)ccc1Oc1ccnc2ccc(OC[C@@H]3CCCNC3)cc12 [Compound 194, (R)-N-(1-(tert-butyl)-1H-pyrazol-4-yl)-2-(3-methyl-4-((6-(piperidin-3-ylmethoxy)quinolin-4-yl)oxy)phenyl) acetamide]"
17,< 2.5 nM,"Cc1cc(CC(=O)Nc2cnn(C(C)(C)C)c2)ccc1Oc1ccnc2ccc(N3CCOC3=O)cc12 [Compound 293, N-(1-(tert-butyl)-1H-pyrazol-4-yl)-2-(3-methyl-4-((6-(2-oxooxazolidin-3-yl)quinolin-4-yl)oxy)phenyl) acetamide]"
